According to patent US10759767B2 (priority 2012, dated 2020):
Like-named read-outs stand apart in the source and are kept apart here.

Tests used:
Alternaria solani = assay: Microtest: activity against early blight caused by Alternaria solani (Alteso); format: cell-based; details: Alternaria solani, 168 h, read-out: Observed efficacy
Botrytis cinerea = assay: Microtest: activity against the grey mold Botrytis cinerea (Botrci); format: cell-based; details: Botrytis cinerea, 168 h, read-out: Observed efficacy
Pyricularia oryzae = assay: microbe, parasite or virus in culture; format: cell-based
Septoria tritici = assay: Microtest: activity against leaf blotch on wheat caused by Septoria tritici (Septtr); format: cell-based; details: solo product
Phytophthora infestans = assay: microbe, parasite or virus in culture; format: cell-based; details: Phytophthora infestans, 168 h, read-out: Observed efficacy
Leptosphaeria nodorum = assay: Microtest: activity against wheat leaf spots caused by Leptosphaeria nodorum (Leptno); format: cell-based; details: Parastagonospora nodorum, 168 h, read-out: Observed efficacy
[1] = Pyricularia oryzae, 168 h, read-out: Observed efficacy

CC#CC(O)(Cn1cncn1)c1ccc(Oc2ccc(Cl)cc2)cc1Cl (centres unmarked) [I-1, 2-[2-chloro-4-(4-chlorophenoxyl)phenyl]-1-(1,2,4-triazol-1-yl)pent-3-yn-2-ol]
inhibition of growth at […] (Alternaria solani; solo 0.00025 ppm): 4%
inhibition of growth at 0.001 ppm (Alternaria solani; solo 0.001 ppm): 10%
inhibition of growth at 1e-06 ppm (Botrytis cinerea; solo 0.000001 ppm): 4%
inhibition of growth at 4e-06 ppm (Botrytis cinerea; solo 0.000004 ppm): 0%
inhibition of growth at 1.6e-05 ppm (Botrytis cinerea; solo 0.000016 ppm): 1%
inhibition of growth at 6.3e-05 ppm (Botrytis cinerea; solo 0.000063 ppm): 0%
inhibition of growth at […] (Botrytis cinerea; solo 0.063 ppm): 16%
inhibition of growth at 0.001 ppm (Pyricularia oryzae; [1]): 3%
inhibition of growth at 0.016 ppm (Pyricularia oryzae; [1]): 0%
Observed efficacy (Pyricularia oryzae; solo product, 0.016 ppm): 0%
inhibition of growth at 4e-06 ppm (Septoria tritici; Zymoseptoria tritici, 168 h, second Septtr microtest, 0.000004 ppm, read-out: Observed efficacy): 11%
inhibition of growth at […] (Septoria tritici; Zymoseptoria tritici, 168 h, second Septtr microtest, 0.00063 ppm, read-out: Observed efficacy): 17%
inhibition of growth at 6.3e-05 ppm (Septoria tritici; Zymoseptoria tritici, 168 h, 0.000063 ppm, read-out: Observed efficacy): 17%
inhibition of growth at 16 ppm (Phytophthora infestans): 0%
inhibition of growth at […] (Leptosphaeria nodorum; solo 0.063 ppm): 19%
inhibition of growth at 6.3e-05 ppm (Leptosphaeria nodorum; solo product, 0.000063 ppm): 12%
melting point: 137 °C

CC(C)C(O)(Cn1cncn1)c1ccc(Oc2ccc(Cl)cc2)cc1C(F)(F)F (centres unmarked) [I-5, 2-[4-(4-chlorophenoxy)-2-(trifluoromethyl)phenyl]-3-methyl-1-(1,2,4-triazol-1-yl)butan-2-ol]
inhibition of growth at 4e-06 ppm (Alternaria solani; solo 0.000004 ppm): 8%
inhibition of growth at 0.004 ppm (Alternaria solani; solo 0.004 ppm): 11%
inhibition of growth at 0.016 ppm (Alternaria solani; solo 0.016 ppm): 10%
inhibition of growth at […] (Alternaria solani; solo 0.063 ppm): 14%
inhibition of growth at 1 ppm (Alternaria solani; solo 1 ppm): 49%
inhibition of growth at […] (Botrytis cinerea; solo 0.063 ppm): 14%
inhibition of growth at […] (Botrytis cinerea; solo 0.25 ppm): 27%
inhibition of growth at 0.001 ppm (Pyricularia oryzae; [1]): 5%
inhibition of growth at 0.004 ppm (Pyricularia oryzae; [1]): 0%
inhibition of growth at 0.016 ppm (Pyricularia oryzae; [1]): 0%
inhibition of growth at 1 ppm (Pyricularia oryzae; [1]): 67%
inhibition of growth at 2.5e-07 ppm (Septoria tritici; Zymoseptoria tritici, 168 h, second Septtr microtest, 0.00000025 ppm, read-out: Observed efficacy): 5%
inhibition of growth at 1e-06 ppm (Septoria tritici; Zymoseptoria tritici, 168 h, second Septtr microtest, 0.000001 ppm, read-out: Observed efficacy): 10%
inhibition of growth at 1.6e-05 ppm (Septoria tritici; Zymoseptoria tritici, 168 h, 0.000016 ppm, read-out: Observed efficacy): 13%
Observed efficacy (Septoria tritici; second Septtr microtest, 0.000016 ppm): 13%
inhibition of growth at 16 ppm (Phytophthora infestans): 2%
inhibition of growth at 63 ppm (Phytophthora infestans): 45%
inhibition of growth at […] (Leptosphaeria nodorum; solo 0.25 ppm): 19%
inhibition of growth at 0.001 ppm (Leptosphaeria nodorum; solo product, 0.001 ppm): 9%
inhibition of growth at […] (Leptosphaeria nodorum; solo product, 0.063 ppm): 20%
melting point: 114 °C
